Results reported in patent US9290427B2, “Anti-invasive compounds” (Universiteit Gent, priority 2012, dated 2016).

Test system: not given
Settings: not given

Row | melting point [°C] | SMILES
1 | 116 to 117 | Fc1ccc(/C=C/c2ccc(F)cc2)cc1 [Compound 90, (E)-4,4′-Difluorostilbene]
2 | 92 to 93 | Fc1ccc(/C=C/c2cccc(F)c2)cc1 [Compound 98, (E)-3,4′-Difluorostilbene]
3 | 71 to 72 | COc1cccc(/C=C/c2ccc(Cl)cc2)c1 [Compound 99, (E)-4′-Chloro-3-methoxystilbene]

Test system: MCF-7/6 mammary carcinoma cells
Design: unit not given here
Settings: training set compounds 1-34, Indo-Belgian screening program; class = log cmin, lowest concentration with invasion grade I or II; cited from earlier work

Row | SMILES | Actual class
4 | COc1cc(O)c(C(=O)/C=C/c2ccccc2)c(OC)c1OC [Compound 21, (2E)-3-phenyl-1-(6′-hydroxy-2′,3′,4′-trimethoxyphenyl)propenone] | 0 (about 1)
5 | COc1ccc(/C=C/C(=O)c2ccc3c(c2)OCO3)c(OC)c1 [Compound 22, (2E)-1-Benzo[1,3]dioxol-5-yl-3-(2,4-dimethoxyphenyl)propenone] | 2 (about 100)
6 | COc1ccc(/C=C/C(=O)c2cc3c(cc2O)OC(C)(C)CC3)cc1OC [Compound 23, (2E)-3-(3,4-Dimethoxyphenyl)-1-(7-hydroxy-2,2-dimethylchroman-6-yl)propenone] | 2 (about 100)
7 | COc1cc(OC)c(C(=O)/C=C/c2ccccc2)c2c1CC(O)C(C)(C)O2 (stereo not shown) [Compound 24, (2E)-1-(3-Hydroxy-5,7-dimethoxy-2,2-dimethylchroman-8-yl)-3-phenylpropenone] | 0 (about 1)
8 | COc1cccc(/C=C/C(=O)c2ccc3c(c2)OCO3)c1OC [Compound 26, (2E)-1-Benzo[1,3]dioxol-5-yl-3-(2,3-dimethoxyphenyl)propenone] | 1 (about 10)
9 | COc1cc(O)c(CC=C(C)C)c(O)c1C(=O)/C=C/c1ccc(O)cc1 [Compound 27, (2E)-3-(4-hydroxyphenyl)-1-(2′,4′-dihydroxy-6′-methoxy-3′-(3-methylbut-2-enyl)phenyl)propenone] | 0 (about 1)
10 | C=CCOc1c(OC)cc(O)c(C(=O)/C=C/c2ccc(O)cc2)c1OC [Compound 28, (2E)-3-(4-hydroxyphenyl)-1-(6′-hydroxy-2′,4′-dimethoxy-3′-(2-propenyloxy)phenyl)propenone] | 1 (about 10)
11 | COc1ccc(/C=C/C(=O)c2cc3c(cc2OC)OC(C)(C)C(O)C3)c(OC)c1 (stereo not shown) [Compound 29, (2E)-3-(2,4-Dimethoxyphenyl)-1-(3-hydroxy-7-methoxy-2,2-dimethylchroman-6-yl)-propenone] | 3 (>100)
12 | COc1ccc(/C=C/C(=O)c2cc3c(cc2O)OC(C)(C)C=C3)c(OC)c1 [Compound 30, (2E)-3-(2,4-Dimethoxyphenyl)-1-(7-hydroxy-2,2-dimethyl-2H-chromen-6-yl)propenone] | 3 (>100)
13 | COc1ccc(C(=O)/C=C/c2ccc(C(C)C)cc2)cc1OC [Compound 31, (2E)-3-(4-(1-methylethyl)phenyl)-1-(3′,4′-dimethoxyphenyl)propenone] | 3 (>100)
14 | COc1ccc(C(=O)/C=C/c2cccc(Oc3ccccc3)c2)cc1OC [Compound 32, (2E)-3-(3-phenoxyphenyl)-1-(3′,4′-dimethoxyphenyl)propenone] | 3 (>100)
15 | COc1ccc(/C=C/C(=O)c2cc(CC=C(C)C)c(OC)cc2OC)c(OC)c1 [Compound 33, (2E)-3-(2,4-dimethoxyphenyl)-1-(2′,4′-dimethoxy-5′-(3-methylbut-2-enyl)phenyl)propenone] | 3 (>100)
16 | COc1cc(OC)c(C(=O)/C=C/c2cccc(Oc3ccccc3)c2)cc1CC=C(C)C [Compound 34, (2E)-3-(3-phenoxyphenyl)-1-(2′,4′-dimethoxy-5′-(3-methylbut-2-enyl)phenyl)propenone] | 3 (>100)
